From PubChem BioAssay (NCI)
Where “and” joins values, the source holds several entries; their conditions need not be identical. Equal entries are not always repeated.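 Compound exposure: 48 hours, 5 concentrations, 96-well plates. GI50 = concentration required for 50% inhibition of growth. At the TGI there is no net growth.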

Experiments:
Assay in all cases: NCI tumour cell line growth inhibition, 48 h
[1] = test system: MDA-N
[2] = test system: KM20L2 colon
[3] = test system: DMS 273 small cell lung
[4] = test system: DLD-1 colon
[5] = test system: LXFL 529 NSCLC
[6] = test system: RXF-631 renal
[7] = test system: M19-MEL melanoma
[8] = test system: XF 498 CNS
[9] = test system: HOP-18 NSCLC
[10] = test system: P388 leukemia

Structure (SMILES) | TGI [1] | TGI [2] | TGI [3] [µM] | TGI [4] [µM] | TGI [5] [µM] | TGI [7] [µM] | TGI [8] | TGI [9] | other results
CCc1ncnc2cc(OCC3CO3)c(OC)cc12 (configuration not stated) | 21.8 µM |  |  |  |  |  |  |  | 
Nc1ncnc2nn(C3OC(CO)C(O)C3O)nc12 (configuration not stated) | > 82.6 µM |  |  |  |  |  |  |  | 
O=C1c2c(c3c4ccccc4[nH]c3c3[nH]c4ccccc4c23)C(=O)N1Cc1ccccc1 |  | 8.57 µM | 6.74 | 15.6 | 11.4 | 12.9 |  |  | TGI [6]: 6.53 µM
Cc1ccc(C)c2c(N=Nc3ccccc3[N+](=O)[O-])c(O)[nH]c12 | > 100 µM |  |  |  |  |  |  |  | 
Cc1cc(NS(=O)(=O)c2ccc(Nc3c4ccccc4nc4c(C(=O)Nc5ccc(S(=O)(=O)N=C(N)N)cc5)ccc(Cl)c34)cc2)no1 |  | > 100 µM | > 100 | > 100 | > 100 | > 100 | 90.9 µM | > 100 µM | 
CC(=O)NC1=C(Sc2ccc(Cl)cc2)C(=O)c2ccccc2C1=O | 3.17 µM |  |  |  |  |  |  |  | 
COc1cc2c(cc1OC)[C@@H]([C@H](O)c1ccccc1)NCC2 |  | > 100 µM | > 100 | > 100 | > 100 | > 100 | > 100 µM | > 100 µM | TGI [6]: > 100 µM
C[C@@](O)(/C=C/[C@H]1CC=CC(=O)O1)[C@@H](C[C@@H](O)\C=C/C=C\C=C\CO)OP(=O)(O)O | 8.08 µM | 6.55 µM and 3.17 µM | 167 | 95.9 |  | 25.6 | 101 µM and 113 µM | 28.5 µM and 127 µM | GI50 [2]: 1.32 µM; GI50 [9]: 15.9 µM and 42.2 µM; GI50 [10]: 1.41 µM and 0.567 µM
CCN(CC)CCC(=O)/C=C/c1ccc(C)cc1 |  | 30 µM | 25.5 | 21.9 | 20.6 | 25.4 | 25.1 µM | 31.5 µM | TGI [6]: 35.1 µM
Cc1cc(NS(=O)(=O)c2ccc(NC(=O)COC(=O)c3cccc4c(=O)c5ccccc5[nH]c34)cc2)no1 |  | > 100 µM | > 100 | > 100 | > 100 | > 100 | > 100 µM |  | 
CC12CC(Sc3ccccc3N1)c1ccccc1O2 (configuration not stated) |  | 34.6 µM | 30.2 | 28.9 | 28.4 | 30.9 | 30.2 µM | 31.6 µM | TGI [6]: 28.4 µM
Cc1ccc2c(CC(=O)O)cc(=O)oc2c1 |  | > 100 µM | > 100 | > 100 | > 100 | > 100 | 9.18 µM | > 100 µM | 
COC(=O)C(=O)C(CC(=O)Nc1cccc(C(F)(F)F)c1)C(=O)OC (configuration not stated) |  | > 100 µM |  | > 100 | > 100 | > 100 |  |  | 
COc1cc2ccc(CC(N)=O)cc2cc1OC |  | > 100 µM | > 100 |  | > 100 | > 100 | > 100 µM | > 100 µM | TGI [6]: > 100 µM
CCOP(=O)(CC(=O)C1=C(O)C(CCCCNC(=O)OC(C)(C)C)N(Cc2ccccc2)C1=O)OCC (configuration not stated) |  | > 100 µM | > 100 | > 100 | > 100 | > 100 |  | > 100 µM | 
NC(CO)C(=O)NCC(=O)O (configuration not stated) | > 100 µM |  |  |  |  |  |  |  | 
NCCN1C(=O)c2ccccc2C1(O)c1ccc(Cl)cc1 (configuration not stated) | 32.7 µM |  |  |  |  |  |  |  | 
Clc1ccc(C2=NOC3C4CCC(C4)C23)cc1 (configuration not stated) |  |  | > 100 | > 100 | > 100 | > 100 |  | > 100 µM | 

Structure (SMILES) | TGI [1] | TGI [2] | TGI [3] [µM] | TGI [4] [µM] | TGI [5] [µM] | TGI [7] [µM] | TGI [8] | TGI [9] | other results
Brc1ccc(C2SCc3nc4ccccc4n32)cc1 (configuration not stated) |  |  |  | 22.3 | 22.2 | 27 | 24.5 µM | 78.5 µM | 
C#CC(=O)OCC#CCOC(=O)C#C | > 100 µM |  |  |  |  |  |  |  | 
C#C/C=C/CC1OC(C(Br)CC)CC(Br)C2CC1O2 (configuration not stated) | > 100 µM |  |  |  |  |  |  |  | 
C[n+]1c(/C=C/c2ccc(/C=N/NC(=O)c3ccc(C(=O)N/N=C/c4ccc(/C=C/c5cn6ccccc6[n+]5C)cc4)cc3)cc2)cn2ccccc21 | > 100 µM |  |  |  |  |  |  |  | 
O=S(=O)(NCCO)c1cc[c]([Sb](=[O])([OH])[OH])cc1 | > 100 µM |  |  |  |  |  |  |  | GI50 [1]: > 100 µM
CC(C)(C)N=CN(C=C(c1ccccc1)c1ccccc1)C1CCCCC1 |  | 46.7 µM | > 100 | > 100 |  | > 100 | 56.8 µM | > 100 µM | 
Cc1cnc(SCCN2CCN(C)CC2)nc1-c1cc2ccccc2s1 |  |  | 18.1 | 25.4 | 27 |  |  |  | 
O=C1CCC2(c3ccccc3)Nc3ccc(Cl)cc3N12 (configuration not stated) |  | > 100 µM |  | > 100 | > 100 | > 100 | > 100 µM |  | TGI [6]: > 100 µM
Oc1c2c(c(O)c3ccccc13)C1(N=N2)c2ccccc2Oc2ccccc21 | 21.8 µM |  |  |  |  |  |  |  | 
CCCCCCCCCCCCCCNCC(OCC)OCC |  | 24.9 µM |  | 28.3 | 29 | 30.5 | 27.4 µM | 30.3 µM | 
C/C=C1\CCC2c3[nH]c4ccccc4c3CCN2C1 (configuration not stated) |  | > 100 µM | > 100 | > 100 | > 100 | > 100 | > 100 µM |  | 
CCCC#CCOC(=O)c1cc([N+](=O)[O-])cc([N+](=O)[O-])c1 | > 100 µM |  |  |  |  |  |  |  | 
O=C(NC(=O)c1cc2cc(Br)cc(Br)c2oc1=O)Oc1ccccc1 |  | > 100 µM | > 100 | > 100 | > 100 | > 100 | > 100 µM | > 100 µM | 
O=c1cc(O)c2c(O)cc(O)cc2o1 | > 100 µM |  |  |  |  |  |  |  | 
O=C1N[C@H]2[C@H](O)[C@H](O)[C@@H](O)[C@H](O)[C@@H]2c2cc3c(c(O)c21)OCO3 | 0.185 µM and 0.128 µM | 3.06 µM | 0.466 | 0.422 | 4.13 |  |  | 0.653 µM | GI50 [1]: 0.025 µM; GI50 [2]: 0.35 µM and 1.76 µM; GI50 [8]: 0.25 µM and 1.24 µM; GI50 [9]: 0.377 µM and 1.99 µM; TGI [10]: 0.164 µM; GI50 [3]: 3.09 µM; GI50 [4]: 0.282 µM and 1.94 µM; GI50 [5]: 0.248 µM; GI50 [6]: 0.288 µM; TGI [6]: 4.33 µM; GI50 [7]: 0.276 µM and 0.463 µM
CC/C(CC(=O)CCC(=O)Nc1ccc(C)c(C)c1)=N\NC(=O)C(N)=O |  | > 100 µM | > 100 | > 100 | > 100 | > 100 | > 100 µM | > 100 µM | 
Nc1nc(-c2cc(-c3cccc4ccccc34)nc(N)n2)cc(-c2cccc3ccccc23)n1 | > 100 µM |  |  |  |  |  |  |  | 
CCN(CC)CCCNc1[nH]ncc2c(C)c3nc4ccccc4c3cc12 | 2.39 µM and 3.99 µM |  |  |  |  |  |  |  | GI50 [1]: 1.19 µM
